The results in this text go back to ChEMBL document CHEMBL3886423, “Nitrogen-containing compounds and pharmaceutical compositions thereof for the treatment of atrial fibrillation” (2015).

What is called IC50 is the concentration at which inhibition is half-maximal. A high value points to weaker potency in that assay.

This experiment has as its target Potassium voltage-gated channel subfamily A member 5 (Homo sapiens, UniProt P22460). Description: Inhibition Assay: CHO-K1 cell lines stably expressing human Kv1.5 channels were prepared in the following manner.Full-length human Kv1.5 cDNA was cloned from a human heart cDNA library (produced by Stratagene). The obtained human Kv1.5 sequence corresponds to the sequence described in FASEB J. 5, 331-337 (1991).The obtained human Kv1.5 cDNA was inserted into a plasmid encoding a CMV promoter and a G418 resistance marker to produce a Kv1.5 expression vector. The human Kv1.5 expression vector was transfected into CHO-K1 cells by the lipofectamine method. After culturing the cells in an F-12 medium (produced by Invitrogen Corp.) containing 10% FBS (produced by Invitrogen Corp.) for 3 or 4 days, the medium was replaced with a FBS-containing F-12 medium that included 1,000 ug/ml of G418 (produced by Invitrogen Corp.), and single colonies were isolated. The amount of Kv1.5 channel expression in the single colonies was quantified at the mRNA level by RT-PCR and then quantified at the protein level. In kind it is cell-based.

Sequence of Potassium voltage-gated channel subfamily A member 5 (P22460 whole entry): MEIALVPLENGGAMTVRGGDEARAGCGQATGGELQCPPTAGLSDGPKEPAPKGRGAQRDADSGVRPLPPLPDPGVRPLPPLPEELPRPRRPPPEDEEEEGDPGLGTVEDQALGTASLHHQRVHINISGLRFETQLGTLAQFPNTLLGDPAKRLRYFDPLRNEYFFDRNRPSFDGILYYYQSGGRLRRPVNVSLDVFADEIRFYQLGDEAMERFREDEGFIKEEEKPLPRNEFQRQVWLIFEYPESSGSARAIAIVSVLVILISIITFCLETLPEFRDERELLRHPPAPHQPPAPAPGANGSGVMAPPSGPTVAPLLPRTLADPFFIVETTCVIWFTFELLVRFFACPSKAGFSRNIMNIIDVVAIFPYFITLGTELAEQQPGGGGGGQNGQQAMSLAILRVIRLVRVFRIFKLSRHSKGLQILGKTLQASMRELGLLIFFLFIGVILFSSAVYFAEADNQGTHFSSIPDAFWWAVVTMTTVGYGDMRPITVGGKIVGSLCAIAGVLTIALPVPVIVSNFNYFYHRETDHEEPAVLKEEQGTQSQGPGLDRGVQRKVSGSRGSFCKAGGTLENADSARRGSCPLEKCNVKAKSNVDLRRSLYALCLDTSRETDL

`Cn1c(=O)ccc2cc(OCCCCCN(CCc3cccnc3)C(=O)c3cccnc3)ccc21` had an IC50 of 1.4 µM. In other words, the single-digit micromolar range.
